Columns and labels:
[1] = target: Tyrosine-protein kinase ABL1 (Homo sapiens, UniProt P00519); assay: Inhibition of human ABL1 assessed as residual activity using EAIYAAPFAKKK as substrate by [gamma-33P]-ATP assay
[2] = Metabolic stability in human liver microsomes assessed as half life at 3 uM measured up to 30 mins in presence of NADPH by […] analysis; assay type: ADME, Microsome
[3] = Metabolic stability in mouse liver microsomes assessed as half life at 3 uM measured up to 30 mins in presence of NADPH by […] analysis; assay type: ADME, Microsome
[4] = target: T1, Discoidin domain-containing receptor 2 (Homo sapiens) (UniProt Q16832); assay: Inhibition of DDR2 (unknown origin) assessed as residual activity at 10 uM incubated for 5 mins in presence of [gamma-33ATP] by scintillation counting based radiometry assay relative to control
T1 sequence (whole entry): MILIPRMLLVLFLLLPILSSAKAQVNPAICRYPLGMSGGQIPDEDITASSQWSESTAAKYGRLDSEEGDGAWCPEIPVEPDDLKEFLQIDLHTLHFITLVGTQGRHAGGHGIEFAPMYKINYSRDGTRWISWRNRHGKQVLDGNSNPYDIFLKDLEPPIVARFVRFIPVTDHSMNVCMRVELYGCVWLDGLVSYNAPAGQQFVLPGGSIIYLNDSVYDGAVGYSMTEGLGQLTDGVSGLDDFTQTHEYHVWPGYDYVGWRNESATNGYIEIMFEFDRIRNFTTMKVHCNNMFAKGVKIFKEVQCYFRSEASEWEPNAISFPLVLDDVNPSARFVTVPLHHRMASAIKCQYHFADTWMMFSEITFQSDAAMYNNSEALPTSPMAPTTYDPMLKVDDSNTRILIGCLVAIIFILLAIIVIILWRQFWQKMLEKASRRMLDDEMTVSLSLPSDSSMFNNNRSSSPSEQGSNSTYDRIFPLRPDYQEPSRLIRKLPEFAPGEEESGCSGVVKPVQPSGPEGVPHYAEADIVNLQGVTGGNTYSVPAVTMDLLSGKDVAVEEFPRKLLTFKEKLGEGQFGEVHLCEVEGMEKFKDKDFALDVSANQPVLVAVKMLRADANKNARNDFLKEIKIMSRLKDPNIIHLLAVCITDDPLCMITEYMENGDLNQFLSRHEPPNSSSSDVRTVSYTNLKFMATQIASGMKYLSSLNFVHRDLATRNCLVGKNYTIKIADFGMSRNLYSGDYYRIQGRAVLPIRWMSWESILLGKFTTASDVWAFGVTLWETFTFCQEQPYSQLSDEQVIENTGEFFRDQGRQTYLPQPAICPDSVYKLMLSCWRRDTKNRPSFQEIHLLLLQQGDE

[5] = target: Proto-oncogene tyrosine-protein kinase Src (Homo sapiens, UniProt P12931); assay: Inhibition of SRC (unknown origin) assessed as residual activity at 10 uM incubated for 5 mins in presence of [gamma-33ATP] by scintillation counting based radiometry assay relative to control
[6] = target: T2, Ephrin type-B receptor 2 (Homo sapiens) (UniProt P29323); assay: Inhibition of EPHB2 (unknown origin) assessed as residual activity at 10 uM incubated for 5 mins in presence of [gamma-33ATP] by scintillation counting based radiometry assay relative to control
T2 sequence (whole entry): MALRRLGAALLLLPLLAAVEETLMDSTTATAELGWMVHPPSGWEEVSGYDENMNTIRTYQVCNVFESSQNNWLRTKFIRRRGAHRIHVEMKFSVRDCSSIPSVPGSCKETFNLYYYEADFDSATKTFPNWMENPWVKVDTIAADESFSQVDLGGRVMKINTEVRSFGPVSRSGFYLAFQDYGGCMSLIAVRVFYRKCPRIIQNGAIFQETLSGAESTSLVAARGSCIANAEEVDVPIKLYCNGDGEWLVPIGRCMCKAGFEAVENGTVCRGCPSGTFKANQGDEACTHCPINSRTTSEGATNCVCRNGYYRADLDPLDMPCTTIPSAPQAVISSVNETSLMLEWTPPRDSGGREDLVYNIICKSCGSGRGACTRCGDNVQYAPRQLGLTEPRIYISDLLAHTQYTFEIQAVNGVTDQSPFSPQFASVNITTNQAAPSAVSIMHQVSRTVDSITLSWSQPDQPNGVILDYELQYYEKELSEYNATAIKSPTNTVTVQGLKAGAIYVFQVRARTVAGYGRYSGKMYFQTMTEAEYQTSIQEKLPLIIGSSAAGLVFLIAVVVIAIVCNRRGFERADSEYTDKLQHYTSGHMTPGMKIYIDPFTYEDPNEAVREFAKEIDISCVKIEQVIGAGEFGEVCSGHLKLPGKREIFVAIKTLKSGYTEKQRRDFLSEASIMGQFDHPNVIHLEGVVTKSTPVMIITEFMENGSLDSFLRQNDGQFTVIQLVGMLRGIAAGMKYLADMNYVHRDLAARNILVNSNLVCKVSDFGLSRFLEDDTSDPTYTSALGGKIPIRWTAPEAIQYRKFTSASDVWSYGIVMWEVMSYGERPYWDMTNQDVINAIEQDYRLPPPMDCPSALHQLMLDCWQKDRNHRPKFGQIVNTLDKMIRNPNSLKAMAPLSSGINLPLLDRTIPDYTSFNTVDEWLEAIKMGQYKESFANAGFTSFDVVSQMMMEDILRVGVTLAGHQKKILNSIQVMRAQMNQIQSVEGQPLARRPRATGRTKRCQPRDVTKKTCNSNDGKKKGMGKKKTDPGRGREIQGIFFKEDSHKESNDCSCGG

[7] = target: Tyrosine-protein kinase Lck (Homo sapiens, UniProt P06239); assay: Inhibition of LCK (unknown origin) assessed as residual activity at 10 uM incubated for 5 mins in presence of [gamma-33ATP] by scintillation counting based radiometry assay relative to control
[8] = target: Serine/threonine-protein kinase Nek6 (Homo sapiens, UniProt Q9HC98); assay: Inhibition of NEK6 (unknown origin) assessed as residual activity at 10 uM incubated for 5 mins in presence of [gamma-33ATP] by scintillation counting based radiometry assay relative to control
Homo sapiens = species on record: Homo sapiens; assay: Inhibition of VEGFR (unknown origin) assessed as residual activity at 10 uM incubated for 5 mins in presence of [gamma-33ATP] by scintillation counting based radiometry assay relative to control
[9] = target: T3, Mitogen-activated protein kinase kinase kinase kinase 3 (Homo sapiens) (UniProt Q8IVH8); assay: Inhibition of MAP4K3 (unknown origin) assessed as residual activity at 10 uM incubated for 5 mins in presence of [gamma-33ATP] by scintillation counting based radiometry assay relative to control
T3 sequence (whole entry): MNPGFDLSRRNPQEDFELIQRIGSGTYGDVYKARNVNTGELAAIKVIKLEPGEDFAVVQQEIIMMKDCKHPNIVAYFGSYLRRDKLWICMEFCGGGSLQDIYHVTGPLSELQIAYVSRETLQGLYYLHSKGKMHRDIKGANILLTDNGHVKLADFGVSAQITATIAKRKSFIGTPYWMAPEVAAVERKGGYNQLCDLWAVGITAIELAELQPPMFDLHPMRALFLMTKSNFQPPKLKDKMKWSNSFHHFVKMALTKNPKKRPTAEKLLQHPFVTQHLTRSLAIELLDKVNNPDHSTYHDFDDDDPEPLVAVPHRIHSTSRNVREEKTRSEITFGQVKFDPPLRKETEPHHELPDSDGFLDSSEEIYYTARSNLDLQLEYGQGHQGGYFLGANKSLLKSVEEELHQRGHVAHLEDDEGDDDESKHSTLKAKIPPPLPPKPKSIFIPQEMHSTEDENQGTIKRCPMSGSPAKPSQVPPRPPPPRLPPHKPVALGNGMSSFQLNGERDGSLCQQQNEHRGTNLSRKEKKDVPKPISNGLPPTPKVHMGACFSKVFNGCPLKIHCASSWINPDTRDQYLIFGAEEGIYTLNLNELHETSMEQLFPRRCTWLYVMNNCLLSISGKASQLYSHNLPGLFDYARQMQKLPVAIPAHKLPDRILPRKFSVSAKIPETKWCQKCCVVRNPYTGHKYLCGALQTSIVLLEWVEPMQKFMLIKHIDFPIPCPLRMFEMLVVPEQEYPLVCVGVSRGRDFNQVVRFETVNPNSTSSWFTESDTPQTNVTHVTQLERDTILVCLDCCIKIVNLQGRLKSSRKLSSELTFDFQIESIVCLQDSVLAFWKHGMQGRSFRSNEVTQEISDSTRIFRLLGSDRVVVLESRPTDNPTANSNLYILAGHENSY

Cytochrome P450 3A4 = Cytochrome P450 3A4 (Homo sapiens, UniProt P08684); assay: Inhibition of human recombinant CYP3A4 expressed in insect cell microsomes in presence of NADPH by fluorescence assay; assay type: ADME
[10] = target: Voltage-gated inwardly rectifying potassium channel KCNH2 (Homo sapiens, UniProt Q12809); assay: Inhibition of human ERG incubated for 4 hrs by competitive fluorescence tracer binding based assay
Sequence of Voltage-gated inwardly rectifying potassium channel KCNH2 (Q12809 whole entry): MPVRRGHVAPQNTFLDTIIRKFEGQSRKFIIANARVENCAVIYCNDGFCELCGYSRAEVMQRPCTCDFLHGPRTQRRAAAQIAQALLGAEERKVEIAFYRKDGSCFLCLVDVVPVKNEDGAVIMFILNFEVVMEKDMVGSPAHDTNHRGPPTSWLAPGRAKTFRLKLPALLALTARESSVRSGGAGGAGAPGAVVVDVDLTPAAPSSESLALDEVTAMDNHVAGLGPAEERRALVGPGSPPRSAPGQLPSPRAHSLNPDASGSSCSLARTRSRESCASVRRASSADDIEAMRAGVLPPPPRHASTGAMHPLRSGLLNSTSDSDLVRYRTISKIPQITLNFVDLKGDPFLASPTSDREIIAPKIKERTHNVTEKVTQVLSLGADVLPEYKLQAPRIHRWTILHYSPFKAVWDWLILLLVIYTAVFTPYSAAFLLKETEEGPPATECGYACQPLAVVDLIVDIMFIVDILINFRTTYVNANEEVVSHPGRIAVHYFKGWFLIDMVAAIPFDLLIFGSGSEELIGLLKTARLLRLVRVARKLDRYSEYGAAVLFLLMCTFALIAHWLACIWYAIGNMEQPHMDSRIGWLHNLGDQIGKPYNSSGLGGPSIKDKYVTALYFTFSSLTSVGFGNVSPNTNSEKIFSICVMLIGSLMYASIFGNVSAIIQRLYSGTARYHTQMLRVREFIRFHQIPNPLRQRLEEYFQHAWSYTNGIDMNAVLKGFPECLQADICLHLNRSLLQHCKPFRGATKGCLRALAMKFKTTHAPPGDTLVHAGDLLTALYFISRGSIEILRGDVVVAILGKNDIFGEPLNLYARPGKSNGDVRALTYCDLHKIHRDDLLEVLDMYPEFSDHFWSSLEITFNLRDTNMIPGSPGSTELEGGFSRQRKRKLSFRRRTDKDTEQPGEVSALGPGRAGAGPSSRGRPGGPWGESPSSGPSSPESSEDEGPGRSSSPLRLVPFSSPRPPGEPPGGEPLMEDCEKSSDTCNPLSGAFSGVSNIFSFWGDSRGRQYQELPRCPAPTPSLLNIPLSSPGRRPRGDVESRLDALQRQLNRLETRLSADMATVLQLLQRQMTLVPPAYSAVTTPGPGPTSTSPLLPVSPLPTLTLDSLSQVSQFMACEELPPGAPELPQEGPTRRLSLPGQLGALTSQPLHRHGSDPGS

Sequence of Tyrosine-protein kinase ABL1 (P00519 whole entry): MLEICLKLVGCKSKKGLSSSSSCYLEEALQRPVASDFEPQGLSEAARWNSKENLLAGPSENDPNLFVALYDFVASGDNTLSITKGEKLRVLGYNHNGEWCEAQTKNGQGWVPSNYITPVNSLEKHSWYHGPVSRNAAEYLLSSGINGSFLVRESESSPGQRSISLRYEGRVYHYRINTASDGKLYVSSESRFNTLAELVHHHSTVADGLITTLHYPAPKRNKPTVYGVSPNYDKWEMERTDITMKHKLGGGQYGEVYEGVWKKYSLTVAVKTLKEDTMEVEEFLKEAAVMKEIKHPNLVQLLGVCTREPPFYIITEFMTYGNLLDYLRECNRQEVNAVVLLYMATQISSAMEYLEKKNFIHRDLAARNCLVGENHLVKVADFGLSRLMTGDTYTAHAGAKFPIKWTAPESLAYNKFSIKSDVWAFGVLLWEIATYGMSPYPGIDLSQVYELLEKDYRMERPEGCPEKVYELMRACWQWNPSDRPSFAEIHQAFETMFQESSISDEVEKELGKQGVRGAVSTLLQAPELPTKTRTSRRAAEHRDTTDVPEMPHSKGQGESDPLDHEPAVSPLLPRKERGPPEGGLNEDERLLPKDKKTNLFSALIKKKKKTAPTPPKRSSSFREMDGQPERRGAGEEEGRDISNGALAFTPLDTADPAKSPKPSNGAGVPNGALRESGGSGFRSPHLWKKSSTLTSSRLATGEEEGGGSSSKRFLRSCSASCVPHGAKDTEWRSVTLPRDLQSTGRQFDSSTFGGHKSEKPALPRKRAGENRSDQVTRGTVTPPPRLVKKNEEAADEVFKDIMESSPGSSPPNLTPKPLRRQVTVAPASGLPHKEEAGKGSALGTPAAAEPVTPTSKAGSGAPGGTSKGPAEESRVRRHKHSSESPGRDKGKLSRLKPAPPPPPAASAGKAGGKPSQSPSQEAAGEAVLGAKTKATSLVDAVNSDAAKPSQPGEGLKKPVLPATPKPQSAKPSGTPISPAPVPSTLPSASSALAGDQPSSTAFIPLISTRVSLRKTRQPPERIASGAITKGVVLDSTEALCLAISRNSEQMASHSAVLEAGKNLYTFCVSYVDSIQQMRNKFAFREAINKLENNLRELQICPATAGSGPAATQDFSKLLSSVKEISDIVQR
Sequence of Cytochrome P450 3A4 (P08684 whole entry): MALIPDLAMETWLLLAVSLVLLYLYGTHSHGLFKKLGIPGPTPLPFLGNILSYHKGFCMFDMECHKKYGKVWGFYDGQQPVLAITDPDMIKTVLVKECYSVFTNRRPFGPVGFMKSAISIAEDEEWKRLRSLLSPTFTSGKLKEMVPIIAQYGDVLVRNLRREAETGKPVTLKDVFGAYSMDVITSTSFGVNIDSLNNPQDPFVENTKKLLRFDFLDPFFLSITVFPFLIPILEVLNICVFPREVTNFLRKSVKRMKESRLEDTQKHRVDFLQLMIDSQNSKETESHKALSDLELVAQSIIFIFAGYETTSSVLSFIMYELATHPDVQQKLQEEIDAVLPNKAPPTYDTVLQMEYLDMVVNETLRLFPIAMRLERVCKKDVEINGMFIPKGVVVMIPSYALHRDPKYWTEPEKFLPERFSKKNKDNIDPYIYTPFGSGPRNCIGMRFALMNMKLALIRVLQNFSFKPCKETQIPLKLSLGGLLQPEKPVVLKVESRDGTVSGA
Sequence of Serine/threonine-protein kinase Nek6 (Q9HC98 whole entry): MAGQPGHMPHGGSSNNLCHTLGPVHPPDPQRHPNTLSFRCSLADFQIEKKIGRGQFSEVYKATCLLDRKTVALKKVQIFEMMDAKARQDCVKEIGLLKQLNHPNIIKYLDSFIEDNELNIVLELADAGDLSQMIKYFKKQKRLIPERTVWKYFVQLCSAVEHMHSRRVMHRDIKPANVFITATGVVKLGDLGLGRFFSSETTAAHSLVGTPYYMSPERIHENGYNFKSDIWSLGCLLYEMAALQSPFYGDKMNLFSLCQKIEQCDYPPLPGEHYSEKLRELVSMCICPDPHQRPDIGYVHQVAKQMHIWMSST
Sequence of Proto-oncogene tyrosine-protein kinase Src (P12931 2-536 limits assumed): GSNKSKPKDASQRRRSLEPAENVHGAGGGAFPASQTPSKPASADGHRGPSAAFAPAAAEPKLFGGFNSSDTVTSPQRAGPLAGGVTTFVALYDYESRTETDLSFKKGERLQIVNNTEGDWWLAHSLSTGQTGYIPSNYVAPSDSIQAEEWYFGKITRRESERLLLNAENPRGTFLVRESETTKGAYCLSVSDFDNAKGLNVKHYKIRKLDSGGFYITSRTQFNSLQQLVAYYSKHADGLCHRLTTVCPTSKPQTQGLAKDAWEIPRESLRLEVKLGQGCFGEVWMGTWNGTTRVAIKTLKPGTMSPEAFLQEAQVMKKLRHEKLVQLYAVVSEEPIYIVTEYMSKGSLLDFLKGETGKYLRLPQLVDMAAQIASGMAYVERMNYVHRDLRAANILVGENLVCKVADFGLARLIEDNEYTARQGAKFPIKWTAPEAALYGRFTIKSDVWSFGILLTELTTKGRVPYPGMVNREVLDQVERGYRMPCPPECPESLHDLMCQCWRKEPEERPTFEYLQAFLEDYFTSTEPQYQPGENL
Sequence of Tyrosine-protein kinase Lck (P06239 2-509 limits assumed): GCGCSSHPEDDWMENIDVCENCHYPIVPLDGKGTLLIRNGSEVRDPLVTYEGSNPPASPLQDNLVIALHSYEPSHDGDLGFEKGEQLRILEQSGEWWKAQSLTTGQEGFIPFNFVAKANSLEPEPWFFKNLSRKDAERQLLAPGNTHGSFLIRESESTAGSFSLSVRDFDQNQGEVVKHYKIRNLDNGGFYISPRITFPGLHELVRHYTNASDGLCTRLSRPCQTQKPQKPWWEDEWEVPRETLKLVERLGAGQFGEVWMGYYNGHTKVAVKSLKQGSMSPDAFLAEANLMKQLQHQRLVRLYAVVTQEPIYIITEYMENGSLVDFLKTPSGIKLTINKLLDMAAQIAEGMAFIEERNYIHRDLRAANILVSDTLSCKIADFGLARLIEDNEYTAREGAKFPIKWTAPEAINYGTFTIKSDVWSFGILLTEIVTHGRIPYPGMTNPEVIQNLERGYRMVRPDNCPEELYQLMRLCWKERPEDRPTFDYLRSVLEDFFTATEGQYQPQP

Compound | IC50 [1] [nM] | half-life at 3 µM [2] [h] | half-life at 3 µM [3] [h] | IC50 (Cytochrome P450 3A4) [nM] | IC50 [10] [nM] | also measured
Cc1ccc(C(=O)Nc2ccc(CN3Cc4ccc(O)cc4C3)c(Cl)c2)cc1C#Cc1cnc2cccnn12 | > 30 | 2.63 | 0.441 |  |  | 
Cc1ccc(C(=O)Nc2ccc(CN3CCN(C)CC3)c(C(F)(F)F)c2)cc1C#Cc1cnc2cccnn12 [PONATINIB] |  | 3.04 | 0.532 |  |  | Activity [4]: 3%; Activity [5]: 11%; Activity [6]: 2%; Activity [7]: 29%; Activity [8]: 52%; Activity (Homo sapiens): 28%; Activity [9]: 2%
Cc1ccc(C(=O)Nc2ccc(CN3CCN(CCO)CC3)c(Cl)c2)cc1C#Cc1cnc2cccnn12 | 0.39 |  |  | 13400 | 100 | 
COCCN1CCN(Cc2ccc(NC(=O)c3ccc(C)c(C#Cc4cnc5cccnn45)c3)cc2C2CC2)CC1 |  |  |  | 13500 | 80 | 
Cc1ccc(C(=O)Nc2ccc(CN3CCN(CCO)CC3)c(C3CC3)c2)cc1C#Cc1cnc2cccnn12 | 0.3 |  |  |  | 340 | 

Source: ChEMBL document CHEMBL4602709 (ACS Med Chem Lett, 2020)
